Test results as given in patent publication US3976663A, “Certain cyclopropane carboxylic acid esters of 2,3-dihyrobenzofuran-3-ols” (The Procter & Gamble Company, priority 1971, dated 1976).
Where two headings read alike, the source gives them in different places.

Legend:
houseflies [1] = assay: Housefly mortality tests, spray tower (Example IV); assay type: in vivo; details: for % Mortality (24 hr.): 10 second spray; for housefly mortality compared with the chrysanthemates of Table 1: equivalent amount in the test of Example IV
Procedure: (§1) 3-Coumaranyl chrysanthemate, 5-chloro-3-coumaranyl chrysanthemate, 5-methoxy-3-coumaranyl chrysanthemate, and natural pyrethrum, respectively, were dissolved in acetone and dispersed in distilled water with Triton X-100 emulsifier. The samples were applied for a 10 second period to houseflies retained in a 2 inch × 5 inch diameter screened cage. The spray is applied from the Water's vertical spray tower operating at 10 p.s.i. and discharging about 30 ml. of material per minute through an atomizer. The spray descends through an 8 inch stainless steel cylinder to test insects below the atomizer. The insects were retained in the sprayed cages for mortality observations.

11 other insects = assay: Insect mortality tests, Example VI as a whole; assay type: in vivo
Procedure: as §1
(§2) All test species except the webbing clothes moth larvae were sprayed in the Water's vertical spray tower as described in Example IV. For the fabric tests, a two inch square area of wool fabric was dipped in the test formulations.

Pea Aphid = assay: Insect mortality test, spray tower (Example VI); assay type: in vivo; details: 0.005 + 0.02 synergist (piperonyl butoxide) % W/V, 2 days
Procedure: as §1, §2

Adult stable flies = assay: Insect mortality test, spray tower (Example VI); assay type: in vivo; details: 0.05 + 0.2 synergist (piperonyl butoxide) % W/V, 1 day
Procedure: as §1, §2

Mexican Bean Beetle = assay: Insect mortality test, spray tower (Example VI); assay type: in vivo; details: 0.005 + 0.02 synergist (piperonyl butoxide) % W/V, 2 days
Procedure: as §1, §2

Southern Armyworm = assay: Insect mortality test, spray tower (Example VI); assay type: in vivo; details: 0.05 + 0.2 synergist (piperonyl butoxide) % W/V, 2 days
Procedure: as §1, §2

[2] = system: Black carpet beetle larvae; assay: Insect mortality test, spray tower (Example VI); assay type: in vivo; details: 0.05 + 0.2 synergist (piperonyl butoxide) % W/V, 7 days
Procedure: as §1, §2

Adult mosquito = assay: Insect mortality test, spray tower (Example VI); assay type: in vivo; details: 0.05 + 0.2 synergist (piperonyl butoxide) % W/V, 1 day
Procedure: as §1, §2

German Cockroach = assay: Insect mortality test, spray tower (Example VI); assay type: in vivo; details: 0.05 + 0.2 synergist (piperonyl butoxide) % W/V, 2 days
Procedure: as §1, §2

Adult rice weevils = assay: Insect mortality test, spray tower (Example VI); assay type: in vivo; details: 0.05 + 0.2 synergist (piperonyl butoxide) % W/V, 3 days
Procedure: as §1, §2

Mite = assay: Insect mortality test, spray tower (Example VI); assay type: in vivo; details: 0.05 + 0.2 synergist (piperonyl butoxide) % W/V, 5 days
Procedure: as §1, §2

[3] = system: Adult saw toothed grain beetles; assay: Insect mortality test, spray tower (Example VI); assay type: in vivo; details: 0.05 + 0.2 synergist (piperonyl butoxide) % W/V, 3 days
Procedure: as §1, §2

[4] = system: Webbing clothes moth larvae; assay: Insect mortality test, wool fabric dipped in test formulation (Example VI); assay type: in vivo; details: 0.05 + 0.2 synergist (piperonyl butoxide) % W/V, 7 days
Text: as §2

[5] = Mammalian toxicity, LD50 (rat); details: in vivo
houseflies [6] = assay: Residual activity against houseflies on treated panels (Example V); assay type: in vivo; details: 100 milligrams per square foot, one hour exposure
Text: (§3) 3-Coumaranyl chrysanthemate and natural pyrethrum, respectively, were formulated in deodorized kerosene to give a deposit rate of 100 milligrams per square foot of area for residual evaluation against houseflies and 200 and 400 milligrams per square foot of area for residual evaluation against German cockroaches. The formulations were uniformly applied at the rate of 8 milliliters/sq.ft. on unpainted plywood and 3.5 milliliters/sq.ft. on vinyl asbestos with a camel hair brush. Adult insects were exposed to each treated panel for one hour (houseflies) or two hours (cockroaches), transferred to clean cages, and held for mortality counts. The same treated panels were used for re-exposures after the aging period indicated.

German cockroaches = assay: Residual activity against cockroaches on treated panels (Example V); assay type: in vivo; details: Blattella germanica, 48 h
Text: as §3

[7] = 0.005 + 0.05 PB (piperonyl butoxide) % W/V
[8] = Musca domestica, topical, 24 h, read-out: % Mortality (24 hr.)
[9] = 0.0025 + 0.025 PB (piperonyl butoxide) % W/V

COc1ccc2c(c1)C(OC(=O)C1C(C=C(C)C)C1(C)C)CO2 (racemic) [Example III, (±) cis, trans-5-methoxy-3-coumaranyl chrysanthemate]
% Mortality (24 hr.) (houseflies [1]; [7]): 57%
% Mortality (24 hr.) (houseflies [1]; 0.01 + 0.1 PB (piperonyl butoxide) % W/V): 100%
mortality at 0.01 % strength (houseflies [1]; [8]): 0%

CC1(C)C(C(=O)OC2COc3ccccc32)C1(C)C (stereo not drawn) [3-coumaranyl 2,2,3,3-tetramethylcyclopropanecarboxylate]
housefly mortality compared with the chrysanthemates of Table 1 (houseflies [1]): equivalent results

CC1(C)C(C=C2CCCC2)C1C(=O)OC1COc2ccc([N+](=O)[O-])cc21 (stereo not drawn) [5-nitro-3-coumaranyl 3-(2,2-tetramethyleneethenyl)-2-dimethylcyclopropanecarboxylate]
housefly mortality compared with the chrysanthemates of Table 1 (houseflies [1]): equivalent results

CC(C)=CC1C(C(=O)OC2COc3ccc([N+](=O)[O-])cc32)C1(C)C (stereo not drawn) [5-nitro-3-coumaranyl chrysanthemate]
housefly mortality compared with the chrysanthemates of Table 1 (houseflies [1]): equivalent results

CC1(C)C(C=C2CCCC2)C1C(=O)OC1COc2ccccc21 (stereo not drawn) [3-coumaranyl 3-(2,2-tetramethyleneethenyl)-2-dimethylcyclopropanecarboxylate]
housefly mortality compared with the chrysanthemates of Table 1 (houseflies [1]): equivalent results

CC(C)=CC1C(C(=O)OC2COc3ccc(Cl)cc32)C1(C)C (racemic) [Example II, (±) cis,trans-5-chloro-3-coumaranyl chrysanthemate]
% Mortality (24 hr.) (houseflies [1]; [9]): 56%
% Mortality (24 hr.) (houseflies [1]; [7]): 99%
mortality at 0.005 % strength (houseflies [1]; [8]): 5%

CC1(C)C(C(=O)OC2COc3ccc(Cl)cc32)C1(C)C (stereo not drawn) [5-chloro-3-coumaranyl 2,2,3,3-tetramethylcyclopropanecarboxylate]
housefly mortality compared with the chrysanthemates of Table 1 (houseflies [1]): equivalent results

CC1(C)C(C=C2CCCC2)C1C(=O)OC1COc2ccc(Cl)cc21 (stereo not drawn) [5-chloro-3-coumaranyl 3-(2,2-tetramethyleneethenyl)-2,2-dimethylcyclopropanecarboxylate]
housefly mortality compared with the chrysanthemates of Table 1 (houseflies [1]): equivalent results

CC1(C)C(C(=O)OC2COc3ccc([N+](=O)[O-])cc32)C1(C)C (stereo not drawn) [5-nitro-3-coumaranyl 2,2,3,3-tetramethylcyclopropanecarboxylate]
housefly mortality compared with the chrysanthemates of Table 1 (houseflies [1]): equivalent results

COc1ccc2c(c1)C(OC(=O)C1C(C=C3CCCC3)C1(C)C)CO2 (stereo not drawn) [5-methoxy-3-coumaranyl 3-(2,2-tetramethyleneethenyl)-2,2-dimethylcyclopropanecarboxylate]
housefly mortality compared with the chrysanthemates of Table 1 (houseflies [1]): equivalent results

COc1ccc2c(c1)C(OC(=O)C1C(C)(C)C1(C)C)CO2 (stereo not drawn) [5-methoxy-3-coumaranyl 2,2,3,3-tetramethylcyclopropanecarboxylate]
housefly mortality compared with the chrysanthemates of Table 1 (houseflies [1]): equivalent results

CC(C)=CC1C(C(=O)OC2COc3ccccc32)C1(C)C (racemic) [Example I, (±) cis,trans-3-coumaranyl chrysanthemate]
effectiveness against 11 other insects (11 other insects): effective
% Mortality (days) (Pea Aphid): 65%
% Mortality (days) (Adult stable flies): 100%
% Mortality (days) (Mexican Bean Beetle): 80%
% Mortality (days) (Southern Armyworm): 70%
% Mortality (days) [2]: 40%
% Mortality (days) (Adult mosquito): 100%
% Mortality (days) (German Cockroach): 30%
% Mortality (days) (Adult rice weevils): 100%
% Mortality (days) (Mite): 69%
% Mortality (days) [3]: 100%
% Mortality (days) [4]: 100%
LD50 [5]: > 7570 mg/kg
% Mortality (24 hr.) (houseflies [6]; Plywood, age of residue 1 day): 100%
% Mortality (24 hr.) (houseflies [6]; Plywood, age of residue 3 days): 98%
% Mortality (24 hr.) (houseflies [6]; Plywood, age of residue 7 days): 83%
% Mortality (24 hr.) (houseflies [6]; Vinyl, age of residue 1 day): 100%
% Mortality (24 hr.) (houseflies [6]; Vinyl, age of residue 3 days): 100%
% Mortality (24 hr.) (houseflies [6]; Vinyl, age of residue 7 days): 59%
% Mortality (24 hr.) (houseflies [1]; 0.00125 + 0.0125 PB (piperonyl butoxide) % W/V): 28%
% Mortality (24 hr.) (houseflies [1]; [9]): 93%
mortality at 0.00125 % strength (houseflies [1]; [8]): 5%
mortality at 0.0025 % strength (houseflies [1]; [8]): 6%
mortality at 200 mg/sq ft (German cockroaches; read-out: % Mortality (48 hrs.), Plywood, 200 milligrams per sq. ft., age of residue 1 day, two hours exposure): 85%
mortality at 200 mg/sq ft (German cockroaches; read-out: % Mortality (48 hrs.), Plywood, 200 milligrams per sq. ft., age of residue 3 days, two hours exposure): 83%
mortality at 200 mg/sq ft (German cockroaches; read-out: % Mortality (48 hrs.), Plywood, 200 milligrams per sq. ft., age of residue 7 days, two hours exposure): 93%
mortality at 200 mg/sq ft (German cockroaches; read-out: % Mortality (48 hrs.), Plywood, 200 milligrams per sq. ft., age of residue 14 days, two hours exposure): 85%
mortality at 400 mg/sq ft (German cockroaches; read-out: % Mortality (48 hrs.), Plywood, 400 milligrams per sq. ft., age of residue 1 day, two hours exposure): 83%
mortality at 400 mg/sq ft (German cockroaches; read-out: % Mortality (48 hrs.), Plywood, 400 milligrams per sq. ft., age of residue 3 days, two hours exposure): 83%
mortality at 400 mg/sq ft (German cockroaches; read-out: % Mortality (48 hrs.), Plywood, 400 milligrams per sq. ft., age of residue 7 days, two hours exposure): 90%
mortality at 400 mg/sq ft (German cockroaches; read-out: % Mortality (48 hrs.), Plywood, 400 milligrams per sq. ft., age of residue 14 days, two hours exposure): 73%
mortality at 200 mg/sq ft (German cockroaches; read-out: % Mortality (48 hrs.), Vinyl, 200 milligrams per sq. ft., age of residue 1 day, two hours exposure): 100%
mortality at 200 mg/sq ft (German cockroaches; read-out: % Mortality (48 hrs.), Vinyl, 200 milligrams per sq. ft., age of residue 3 days, two hours exposure): 95%
mortality at 200 mg/sq ft (German cockroaches; read-out: % Mortality (48 hrs.), Vinyl, 200 milligrams per sq. ft., age of residue 7 days, two hours exposure): 70%
mortality at 200 mg/sq ft (German cockroaches; read-out: % Mortality (48 hrs.), Vinyl, 200 milligrams per sq. ft., age of residue 14 days, two hours exposure): 20%
mortality at 400 mg/sq ft (German cockroaches; read-out: % Mortality (48 hrs.), Vinyl, 400 milligrams per sq. ft., age of residue 1 day, two hours exposure): 100%
mortality at 400 mg/sq ft (German cockroaches; read-out: % Mortality (48 hrs.), Vinyl, 400 milligrams per sq. ft., age of residue 3 days, two hours exposure): 100%
mortality at 400 mg/sq ft (German cockroaches; read-out: % Mortality (48 hrs.), Vinyl, 400 milligrams per sq. ft., age of residue 7 days, two hours exposure): 100%
mortality at 400 mg/sq ft (German cockroaches; read-out: % Mortality (48 hrs.), Vinyl, 400 milligrams per sq. ft., age of residue 14 days, two hours exposure): 83%
